Data as given in PubChem BioAssay (NCI).
Values joined by “and” are separate entries in the source; they are usually repeats but may differ in a detail not shown here. Identical values can stand only once.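 Cultured in 96-well plates, cells were exposed to test compound for 48 hours across five concentrations. GI50 is the concentration that inhibits growth by half. At the TGI there is no net growth.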

What was measured:
Experiment in all cases: NCI-60 cell line screen, 48 h
[1] = system: SNB-75 CNS
[2] = system: 786-0 renal
[3] = system: M14 melanoma
[4] = system: MDA-MB-435
[5] = system: HCT-116 colon
[6] = system: KM12 colon
[7] = system: CCRF-CEM leukemia
[8] = system: SW-620 colon
[9] = system: NCI/ADR-RES ovarian
[10] = system: OVCAR-3 ovarian
[11] = system: OVCAR-8 ovarian
[12] = system: SK-MEL-2 melanoma
[13] = system: SNB-19 CNS
[14] = system: UACC-62 melanoma
[15] = system: MALME-3M melanoma
[16] = system: MOLT-4 leukemia
[17] = system: OVCAR-4 ovarian
[18] = system: TK-10 renal
[19] = system: A549 NSCLC
[20] = system: SK-MEL-28 melanoma
[21] = system: UO-31 renal
[22] = system: NCI-H226 lung
[23] = system: K-562 leukemia
[24] = system: IGROV1 ovarian
[25] = system: CAKI-1 renal
[26] = system: OVCAR-5 ovarian
[27] = system: PC-3 prostate
[28] = system: HT29 colon
[29] = system: NCI-H23 lung
[30] = system: LOX IMVI melanoma
[31] = system: MDA-MB-231 breast
[32] = system: MCF7 breast
[33] = system: UACC-257 melanoma
[34] = system: MDA-N
[35] = system: HCT-15 colon
[36] = system: HS 578T breast
[37] = system: HOP-62 NSCLC
[38] = system: EKVX NSCLC
[39] = system: BT-549 breast
[40] = system: ACHN renal
[41] = system: SK-OV-3 ovarian
[42] = system: COLO 205 colon
[43] = system: SR leukemia
[44] = system: SF-539 CNS
[45] = system: SF-295 CNS
[46] = system: A498 renal
[47] = system: HCC-2998 colon
[48] = system: RXF 393 renal
[49] = system: SK-MEL-5 melanoma
[50] = system: SN12C renal
[51] = system: HOP-92 NSCLC
[52] = system: U251 CNS
[53] = system: NCI-H460 lung
[54] = system: HL-60(TB) leukemia
[55] = system: NCI-H522 lung
[56] = system: RPMI-8226 leukemia
[57] = system: DU-145 prostate
[58] = system: SF-268 CNS

Question: What does the source list for `O=C1Nc2c(Cl)cc(Cl)cc2/C1=N/N=C/c1ccccc1O`?
Answer: TGI [1]: 48.2 µM; TGI [2]: 40.9 µM; TGI [3]: 49.8 µM; TGI [4]: 51.6 µM; TGI [5]: 32.1 µM; TGI [6]: 68.4 µM; TGI [7]: 58.7 µM; TGI [8]: 59.3 µM; TGI [9]: 51.7 µM; TGI [10]: 34 µM; TGI [11]: > 100 µM; TGI [12]: 39.9 µM; TGI [13]: > 100 µM; TGI [14]: 32.1 µM; TGI [15]: 88.4 µM; TGI [16]: 62.5 µM; TGI [17]: > 100 µM; TGI [18]: > 100 µM; TGI [19]: 88.4 µM; TGI [20]: 40.3 µM; TGI [21]: > 100 µM; TGI [22]: 74.6 µM; TGI [23]: 68.1 µM; TGI [24]: 85.8 µM; TGI [25]: 47.4 µM; TGI [26]: 48.7 µM; TGI [27]: 53.5 µM; TGI [28]: 40.4 µM; TGI [29]: 40.3 µM; TGI [30]: 31.8 µM; TGI [31]: 54.7 µM; TGI [32]: 94.2 µM; TGI [33]: 66.3 µM; TGI [34]: 35.1 µM; TGI [35]: 51 µM; TGI [36]: 72.2 µM; TGI [37]: 41.3 µM; TGI [38]: 91.5 µM; TGI [39]: 35.7 µM; TGI [40]: > 100 µM; TGI [41]: 88.1 µM; TGI [42]: 31.4 µM; TGI [43]: 46.5 µM; TGI [44]: 41.6 µM; TGI [45]: 47.7 µM; TGI [46]: 36.9 µM; TGI [47]: 34.3 µM; TGI [48]: 50.7 µM; TGI [49]: 47.5 µM; TGI [50]: 34.9 µM; TGI [51]: 62.8 µM; TGI [52]: 36.1 µM; TGI [53]: 34.4 µM; TGI [54]: 49.7 µM

Question: What does the source list for `C=C(C)[C@@H]1CC[C@]2(COC(C)=O)CC[C@]3(C)[C@H](CC[C@@H]4[C@@]5(C)CC[C@H](OC(C)=O)C(C)(C)[C@@H]5CC[C@]43C)[C@@H]12`?
Answer: TGI [1]: > 50 µM; TGI [2]: > 50 µM; TGI [3]: > 50 µM; TGI [4]: > 50 µM; TGI [5]: > 50 µM; TGI [7]: > 50 µM; TGI [8]: > 50 µM; TGI [9]: > 50 µM; TGI [10]: > 50 µM; TGI [11]: > 50 µM; TGI [12]: > 50 µM; TGI [13]: > 50 µM; TGI [14]: > 50 µM; TGI [55]: > 50 µM; TGI [16]: > 50 µM; TGI [17]: > 50 µM; TGI [19]: > 50 µM; TGI [20]: > 50 µM; TGI [21]: > 50 µM; TGI [22]: > 50 µM; TGI [23]: > 50 µM; TGI [24]: > 50 µM; TGI [27]: > 50 µM; TGI [28]: > 50 µM; TGI [29]: > 50 µM; TGI [30]: > 50 µM; TGI [31]: > 50 µM; TGI [33]: > 50 µM; TGI [34]: > 50 µM; TGI [35]: > 50 µM; TGI [36]: > 50 µM; TGI [37]: > 50 µM; TGI [39]: > 50 µM; TGI [40]: > 50 µM; TGI [41]: > 50 µM; TGI [42]: > 50 µM; TGI [43]: > 50 µM; TGI [44]: > 50 µM; TGI [46]: > 50 µM; TGI [47]: 1.67 µM; TGI [56]: > 50 µM; TGI [49]: > 50 µM; TGI [50]: > 50 µM; TGI [51]: > 50 µM; TGI [52]: > 50 µM; TGI [54]: > 50 µM

Question: What does the source list for `CCc1c2c(nc3ccc(O)cc13)-c1cc3c(c(=O)n1C2)COC(=O)[C@]3(O)CC`?
Answer: TGI [1]: 0.351 µM; TGI [3]: 0.488 µM and 0.156 µM; TGI [57]: 3.1 µM; TGI [4]: 0.292 µM and 1.57 µM; TGI [5]: > 36.1 µM; GI50 [6]: 0.0784 µM; TGI [6]: 2.64 µM; TGI [7]: > 100 µM; TGI [8]: > 100 µM; TGI [9]: 6.45 µM; GI50 [10]: 0.0649 µM; TGI [10]: 2.55 µM and 1.67 µM; TGI [12]: 0.282 µM; TGI [13]: > 12.7 µM; TGI [55]: 0.885 µM and 0.317 µM; GI50 [17]: 0.279 µM; GI50 [18]: 0.606 µM; GI50 [19]: < 0.001 µM; TGI [19]: 8.34 µM; GI50 [20]: 0.246 µM; TGI [20]: > 19.7 µM; TGI [21]: 0.0152 µM and 0.115 µM; TGI [22]: 0.0109 µM and 0.0892 µM; TGI [23]: > 100 µM; TGI [25]: 0.0286 µM and 0.0985 µM; GI50 [26]: 0.246 µM; TGI [26]: 4.56 µM; GI50 [27]: 0.0857 µM; TGI [27]: > 100 µM; TGI [28]: 0.526 µM; GI50 [31]: 0.524 µM; TGI [31]: > 100 µM; GI50 [33]: 0.0838 µM; TGI [58]: 3.68 µM; GI50 [34]: 1.92 µM; TGI [34]: > 100 µM; GI50 [35]: 0.206 µM; TGI [35]: > 100 µM; GI50 [36]: 4.12 µM; TGI [36]: > 100 µM; GI50 [38]: 0.545 µM; TGI [38]: > 100 µM; GI50 [39]: 0.0103 µM; TGI [39]: 0.293 µM; TGI [40]: 0.0322 µM and 0.123 µM; GI50 [41]: < 0.001 µM; TGI [41]: 0.342 µM and 0.792 µM; GI50 [42]: 0.0711 µM; TGI [42]: 12.2 µM; TGI [45]: 0.0503 µM; GI50 [56]: < 0.001 µM; TGI [50]: > 100 µM; GI50 [51]: < 0.001 µM; TGI [53]: 0.147 µM and 0.536 µM
